Measured values from paper PMC8819291, “Adaptively evolved human oral actinomyces‐sourced defensins show therapeutic potential” (EMBO Molecular Medicine, 2021).
Entries after “also recorded” stand apart in the source; their conditions may differ. Marks after values point to notes of the source that are not given here. Where a SMILES comes first, the peptide text is derived from it. Bridges are numbered along the chain shown (N, C = ends).

Legend:
[1] = system: Bacillus megaterium CGMCC 1.0459; experiment: Inhibition-zone assay (lethal concentration); type: cell-based; conditions: LB, 37°C
Source text: (§1) Bacterial media used here included: Luria‐Bertani (LB) medium, THY medium (30 g Todd Hewitt broth and 5 g Yeast extract per liter), and tryptic soy broth (TSB) (Oxoid, Basingstoke, UK); Broth medium and brain–heart infusion (BHI) medium (Beijing Landbridge technology Limited by Share Ltd., Beijing, China); Potato dextrose (PD) medium (self‐prepared).
(§2) In brief, an overnight bacterial culture from a single colony was inoculated into fresh medium and grew to late log‐phase. A 10‐μl aliquot of each culture was diluted in 6‐ml pre‐heated medium containing 0.8% agar. The mixture was spread on a 9‐cm Petri dish, giving a depth of 1 mm. After settling, 3‐mm wells were punched in the plate and then 2‐μl peptide samples of different concentrations were added to each well. The agar plates were incubated overnight at indicated temperatures (Table EV4). A lethal concentration (C L ) was calculated from a plot of d^2 against log n, where d is the diameter (in cm) and n is the amount of sample applied in the well (in nmol). The plot is linear, and thus C L can be calculated from the slope (k) and the intercept (m) of this plot.

[2] = system: Bacillus subtilis CGMCC 1.2428; experiment: Inhibition-zone assay (lethal concentration); type: cell-based; conditions: LB, 37°C
Source text: as §1, §2

[3] = system: Enterococcus faecalis V583 (ATCC 700802); experiment: Inhibition-zone assay (lethal concentration); type: cell-based; conditions: BHI, 37°C
Source text: as §1, §2

[4] = system: Lysinibacillus fusiformis; experiment: Inhibition-zone assay (lethal concentration); type: cell-based; conditions: Broth Medium, 37°C
Source text: as §1, §2

[5] = system: Methicillin‐resistant Staphylococcus aureus P1374; experiment: Inhibition-zone assay (lethal concentration); type: cell-based; conditions: Broth Medium, 37°C
Source text: as §1, §2

[6] = system: Methicillin‐resistant Staphylococcus aureus P1386; experiment: Inhibition-zone assay (lethal concentration); type: cell-based; conditions: Broth Medium, 37°C
Source text: as §1, §2

[7] = system: Staphylococcus aureus CGMCC 1.89; experiment: Inhibition-zone assay (lethal concentration); type: cell-based; conditions: Broth Medium, 37°C
Source text: as §1, §2

[8] = system: Staphylococcus aureus J685; experiment: Inhibition-zone assay (lethal concentration); type: cell-based; conditions: Broth Medium, 37°C
Source text: as §1, §2

[9] = system: Staphylococcus aureus J698; experiment: Inhibition-zone assay (lethal concentration); type: cell-based; conditions: Broth Medium, 37°C
Source text: as §1, §2

[10] = system: Staphylococcus aureus J700; experiment: Inhibition-zone assay (lethal concentration); type: cell-based; conditions: Broth Medium, 37°C
Source text: as §1, §2

[11] = system: Staphylococcus aureus J706; experiment: Inhibition-zone assay (lethal concentration); type: cell-based; conditions: Broth Medium, 37°C
Source text: as §1, §2

[12] = system: Staphylococcus aureus J708; experiment: Inhibition-zone assay (lethal concentration); type: cell-based; conditions: Broth Medium, 37°C
Source text: as §1, §2

[13] = system: Staphylococcus aureus J710; experiment: Inhibition-zone assay (lethal concentration); type: cell-based; conditions: Broth Medium, 37°C
Source text: as §1, §2

[14] = system: Streptococcus mutans CGMCC 1.2499 (ATCC 25175); experiment: Inhibition-zone assay (lethal concentration); type: cell-based; conditions: Broth Medium, 37°C
Source text: as §1, §2

[15] = system: Streptococcus pneumoniae D39; experiment: Inhibition-zone assay (lethal concentration); type: cell-based; conditions: THY, 5% CO2, 37°C
Source text: as §1, §2

[16] = system: Streptococcus pneumoniae R6; experiment: Inhibition-zone assay (lethal concentration); type: cell-based; conditions: THY, 5% CO2, 37°C
Source text: as §1, §2

[17] = system: Streptococcus pneumoniae ST556 (StrR); experiment: Inhibition-zone assay (lethal concentration); type: cell-based; conditions: streptomycin‐resistant strain; THY, 5% CO2, 37°C
Source text: as §1, §2

[18] = system: Streptococcus pneumoniae ST556; experiment: Inhibition-zone assay (lethal concentration); type: cell-based; conditions: THY, 5% CO2, 37°C
Source text: as §1, §2

[19] = system: Streptococcus pneumoniae TIGR4; experiment: Inhibition-zone assay (lethal concentration); type: cell-based; conditions: THY, 5% CO2, 37°C
Source text: as §1, §2

[20] = system: Streptococcus salivarius CGMCC 1.2498 (ATCC 7073); experiment: Inhibition-zone assay (lethal concentration); type: cell-based; conditions: Broth Medium, 37°C
Source text: as §1, §2

[21] = system: Streptococcus sanguinis CGMCC 1.2497 (ATCC 49295); experiment: Inhibition-zone assay (lethal concentration); type: cell-based; conditions: Broth Medium, 37°C
Source text: as §1, §2

[22] = system: Streptomyces griseus NBRC 13350; experiment: Inhibition-zone assay (lethal concentration); type: cell-based; conditions: PD, 28°C
Source text: as §1, §2

[23] = system: Streptomyces scabiei CGMCC 4.1765 (ATCC 49173); experiment: Inhibition-zone assay (lethal concentration); type: cell-based; conditions: Tryptone Soy Broth (TSB), 30°C
Source text: as §1, §2

[24] = system: penicillin‐resistant Staphylococcus aureus P1383; experiment: Inhibition-zone assay (lethal concentration); type: cell-based; conditions: Broth Medium, 37°C
Source text: as §1, §2

[25] = system: penicillin‐resistant Staphylococcus epidermidis P1389; experiment: Inhibition-zone assay (lethal concentration); type: cell-based; conditions: Broth Medium, 37°C
Source text: as §1, §2

[26] = system: penicillin‐sensitive Staphylococcus epidermidis P1111; experiment: Inhibition-zone assay (lethal concentration); type: cell-based; conditions: Broth Medium, 37°C
Source text: as §1, §2

hLZc (lysozyme C) = target: T1, hLZc (lysozyme C) (Homo sapiens, UniProt P61626); experiment: Bio-affinity ESI-MS for non-covalent complexes; type: binding; conditions: 52.5 μM AMSIN and 50 μM hLZc in 25 mM NH4OAc (pH5.2)
T1 construct: lysozyme C) isolated from human saliva; from tissue; host or cells: human saliva
T1 sequence (P61626 19-148): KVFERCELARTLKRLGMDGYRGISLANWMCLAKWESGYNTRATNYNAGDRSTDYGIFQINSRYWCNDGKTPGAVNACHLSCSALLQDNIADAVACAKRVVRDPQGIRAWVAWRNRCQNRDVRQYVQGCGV
Experimental: All components for interactions were dissolved in 25 mM ammonium acetate (pH5.2). Electrospray spectra were recorded with Waters SynaptG2‐Si mass spectrometer (Waters, Manchester, UK) and measurements were performed with positive ESI in resolution mode. Ions were scanned in a mass range of 500–2,000 m/z with the following conditions: the capillary voltage at 1,500 V; the cone voltage at 40 V; the source block temperature at 30°C. Spectra were recorded and processed by the software Masslynx4.1 (Waters, Manchester, UK).

[27] = Circular dichroism spectroscopy with UMP; type: binding; conditions: 50 mM NH4OAc, room temperature
Experimental: The spectra were measured at room temperature from 300 to 200 nm by using a quartz cell of 1.0 mm thickness. Data were collected at 1‐nm intervals with a scan rate of 2 nm/s.

MRSA P1374 = experiment: Mouse peritonitis model; type: in vivo
Experimental: ICR male mice (30 g each mouse; 6 weeks of age) were infected with 0.5 ml of bacterial suspension (1 × 10^8 CFU per mouse) via intraperitoneal injection (i.p.), a dose that achieved 100% mortality within 24 h after infection. […] Vehicle (0.9%) treated control group included 11 mice. Schematic representation is provided in Appendix Fig S16C.

CC[C@H](C)[C@@H]1NC(=O)[C@H](CCCCN)NC(=O)CNC(=O)[C@H](CCCNC(=N)N)NC(=O)[C@@H]2CSSC[C@H](NC(=O)CNC(=O)[C@H](Cc3ccccc3)NC(=O)CN)C(=O)N3CCC[C@H]3C(=O)N[C@@H](Cc3c[nH]c4ccccc34)C(=O)N[C@@H](CC(N)=O)C(=O)N[C@@H](C)C(=O)N[C@@H](Cc3ccc(O)cc3)C(=O)N[C@@H](CCC(=O)O)C(=O)N[C@H]3CSSC[C@H](NC(=O)[C@H]([C@@H](C)O)NC(=O)[C@H](CCC(N)=O)NC(=O)[C@H](CCCNC(=N)N)NC1=O)C(=O)N[C@@H](Cc1c[nH]cn1)C(=O)N[C@H](C(=O)N[C@@H](Cc1ccc(O)cc1)C(=O)O)CSSC[C@H](NC(=O)[C@H](Cc1c[nH]cn1)NC(=O)[C@H](CCCNC(=N)N)NC(=O)[C@H](CC(=O)O)NC3=O)C(=O)N[C@@H](C(C)C)C(=O)N[C@@H](CO)C(=O)N[C@@H](CCCCN)C(=O)NCC(=O)N[C@@H](Cc1ccc(O)cc1)C(=O)N[C@@H]([C@@H](C)O)C(=O)NCC(=O)NCC(=O)N[C@@H](CC(N)=O)C(=O)N2 [AMSIN] (H-GFGCPWNAYECDRHCVSKGYTGGNCRGKIRQTCHCY-OH; disulfide 4-25, 11-33, 15-35; N-terminus and C-terminus assumed)
Lethal concentration (C L) ([1]; AMSIN alone): 0.11 µM | Lethal concentration (C L) ([1]; In combination with HNP1&2): 0.038 ^a µM | Lethal concentration (C L) ([1]; In combination with hLZc): 0.045 ^b µM | Lethal concentration (C L) [2]: 1.00 µM | Lethal concentration (C L) [3]: 4.65 µM | Lethal concentration (C L) [4]: 0.27 µM | Lethal concentration (C L) [5]: 0.62 µM | Lethal concentration (C L) [6]: 0.74 µM | Lethal concentration (C L) [7]: 5.20 µM | Lethal concentration (C L) [8]: 10.40 µM | Lethal concentration (C L) [9]: 5.20 µM | Lethal concentration (C L) [10]: 5.20 µM | Lethal concentration (C L) [11]: 5.20 µM | Lethal concentration (C L) [12]: 1.14 µM | Lethal concentration (C L) [13]: 2.60 µM | Lethal concentration (C L) ([14]; AMSIN alone): 1.01 µM | Lethal concentration (C L) ([14]; In combination with HNP1&2): 0.38 ^a µM | Lethal concentration (C L) ([14]; In combination with hLZc): 0.56 ^b µM | Lethal concentration (C L) [15]: 0.09 µM | Lethal concentration (C L) [16]: 0.14 µM | Lethal concentration (C L) [17]: < 0.14 µM | Lethal concentration (C L) [18]: 0.14 µM | Lethal concentration (C L) [19]: 0.14 µM | Lethal concentration (C L) [20]: 0.49 µM | Lethal concentration (C L) [21]: 1.41 µM | Lethal concentration (C L) [22]: 2.89 µM | Lethal concentration (C L) [23]: 2.01 µM | Lethal concentration (C L) [24]: 4.28 µM | Lethal concentration (C L) [25]: 1.14 µM | Lethal concentration (C L) [26]: 5.20 µM | Complex formation by ESI-MS (hLZc (lysozyme C)): no complex formation | Complex with UMP by CD absorption signatures [27]: a complex was formed | Survival after peritoneal infection with MRSA P1374 (MRSA P1374; 1 × 10^8 CFU i.p., AMSIN i.v. 1 h post‐infection 20 mg per kg, then 10 mg per kg once daily, six mice, 7‐day study period): all survived; also recorded: survived the 7‐day study period | Toxicity of administration route in the model (MRSA P1374; intravenous injection (i.v.)): no obvious toxicity | Duration of continued survival (MRSA P1374; same six treated mice, observation period): > 30 days
